Holding throughout (format): biochemical
Assay [1] addresses T1, human EGFR (L858R/T790M/C797S) (Homo sapiens, UniProt P00533, C797S/L858R/T790M).
T1 construct: made in house; host or cells: Sf9 insect cells, baculovirus
In words: Inhibitory activity against EGFR (L858R/T790M/C797S) kinase. Conditions: Test Example 1, Table 3; ATP 0.5 μM. The procedure, abridged: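 GST-tagged cytoplasmic domain of human EGFR L858R/T790M/C797S, expressed in Sf9 insect cells via baculovirus and glutathione-purified. Kinase reaction run at 0.5 μM ATP final; IC50 (nM) determined per compound.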

For assay [2], the target named is T2, human EGFR (d746-750/C797S) (Homo sapiens, UniProt P00533, C797S/DEL746-750).
T2 construct: purchased SignalChem
T2 sequence (P00533 with tags, fused parts or gaps DEL746-750/C797S): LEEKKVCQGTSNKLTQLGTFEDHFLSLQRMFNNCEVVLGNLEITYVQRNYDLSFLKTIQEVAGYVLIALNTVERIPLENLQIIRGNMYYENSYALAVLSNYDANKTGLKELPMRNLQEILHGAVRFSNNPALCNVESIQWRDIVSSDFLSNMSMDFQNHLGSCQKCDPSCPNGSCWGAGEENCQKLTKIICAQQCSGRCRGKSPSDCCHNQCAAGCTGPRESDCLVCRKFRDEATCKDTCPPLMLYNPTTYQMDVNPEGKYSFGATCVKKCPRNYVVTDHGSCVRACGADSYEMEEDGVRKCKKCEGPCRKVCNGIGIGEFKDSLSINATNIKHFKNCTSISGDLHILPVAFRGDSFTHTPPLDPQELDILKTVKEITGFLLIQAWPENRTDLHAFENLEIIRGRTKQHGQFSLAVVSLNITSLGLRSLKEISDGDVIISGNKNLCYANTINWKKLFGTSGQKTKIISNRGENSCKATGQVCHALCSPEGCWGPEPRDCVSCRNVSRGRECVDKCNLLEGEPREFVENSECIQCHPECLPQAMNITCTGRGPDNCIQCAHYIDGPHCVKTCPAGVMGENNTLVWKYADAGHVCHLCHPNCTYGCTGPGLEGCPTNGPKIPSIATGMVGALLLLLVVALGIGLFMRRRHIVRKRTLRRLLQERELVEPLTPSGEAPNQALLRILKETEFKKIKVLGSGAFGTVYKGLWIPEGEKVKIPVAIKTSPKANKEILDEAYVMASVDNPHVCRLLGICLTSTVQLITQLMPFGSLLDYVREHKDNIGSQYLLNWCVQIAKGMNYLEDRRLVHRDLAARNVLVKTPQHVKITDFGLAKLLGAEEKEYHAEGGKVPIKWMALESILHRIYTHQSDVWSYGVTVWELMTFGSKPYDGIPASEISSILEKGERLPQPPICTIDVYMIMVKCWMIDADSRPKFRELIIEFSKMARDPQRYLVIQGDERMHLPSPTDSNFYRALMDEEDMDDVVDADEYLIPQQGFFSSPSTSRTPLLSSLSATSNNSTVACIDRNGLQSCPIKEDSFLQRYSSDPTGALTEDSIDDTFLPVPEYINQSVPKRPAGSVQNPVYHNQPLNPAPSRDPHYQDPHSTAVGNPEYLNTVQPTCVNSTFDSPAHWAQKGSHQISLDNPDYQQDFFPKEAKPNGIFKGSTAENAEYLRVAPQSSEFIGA
In words: Inhibitory activity against EGFR (d746-750/C797S) kinase. The conditions noted are these: Test Example 1, Table 4; ATP 14 μM, 60 minutes. The procedure, abridged:
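Recombinant human EGFR d746-750/C797S in 13.5 mM Tris pH 7.5 with 2 mM DTT and 0.009% Tween-20. Reaction ran 60 min with 14 μM ATP, 20 mM MgCl2 and 12.5 mM MnCl2, stopped by 40 mM EDTA. IC50 in nM.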

A further assay has as its target T3, human EGFR (L858R/C797S) (Homo sapiens, UniProt P00533, C797S/L858R).
T3 construct: purchased SignalChem
In words: Inhibitory activity against EGFR (L858R/C797S) kinase. Conditions: Test Example 1, Table 5; ATP 4 μM, 90 minutes. The essentials: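 Purified recombinant human EGFR (C797S/L858R) kinase, final ATP 4 μM, 90-minute kinase reaction, otherwise per the EGFR (d746-750/C797S) protocol. IC50 (nM) determined from inhibition data.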

A further assay concerns the target T4, human EGFR (WT) (Homo sapiens, UniProt P00533).
T4 construct: purchased Carna Biosciences Inc., Japan
In words: Inhibitory activity against EGFR (WT) kinase. The conditions noted are these: Test Example 1, Table 6; ATP 1.5 μM. The procedure, abridged: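 Purified recombinant human wild-type EGFR kinase, with ATP at 1.5 μM final. Compound inhibition of kinase activity read out and fitted to give IC50 (nM).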

The values that follow come from patent US11786534B2 (TAIHO PHARMACEUTICAL CO., LTD., priority 2019, dated 2023).

T4 sequence (P00533 25-1210): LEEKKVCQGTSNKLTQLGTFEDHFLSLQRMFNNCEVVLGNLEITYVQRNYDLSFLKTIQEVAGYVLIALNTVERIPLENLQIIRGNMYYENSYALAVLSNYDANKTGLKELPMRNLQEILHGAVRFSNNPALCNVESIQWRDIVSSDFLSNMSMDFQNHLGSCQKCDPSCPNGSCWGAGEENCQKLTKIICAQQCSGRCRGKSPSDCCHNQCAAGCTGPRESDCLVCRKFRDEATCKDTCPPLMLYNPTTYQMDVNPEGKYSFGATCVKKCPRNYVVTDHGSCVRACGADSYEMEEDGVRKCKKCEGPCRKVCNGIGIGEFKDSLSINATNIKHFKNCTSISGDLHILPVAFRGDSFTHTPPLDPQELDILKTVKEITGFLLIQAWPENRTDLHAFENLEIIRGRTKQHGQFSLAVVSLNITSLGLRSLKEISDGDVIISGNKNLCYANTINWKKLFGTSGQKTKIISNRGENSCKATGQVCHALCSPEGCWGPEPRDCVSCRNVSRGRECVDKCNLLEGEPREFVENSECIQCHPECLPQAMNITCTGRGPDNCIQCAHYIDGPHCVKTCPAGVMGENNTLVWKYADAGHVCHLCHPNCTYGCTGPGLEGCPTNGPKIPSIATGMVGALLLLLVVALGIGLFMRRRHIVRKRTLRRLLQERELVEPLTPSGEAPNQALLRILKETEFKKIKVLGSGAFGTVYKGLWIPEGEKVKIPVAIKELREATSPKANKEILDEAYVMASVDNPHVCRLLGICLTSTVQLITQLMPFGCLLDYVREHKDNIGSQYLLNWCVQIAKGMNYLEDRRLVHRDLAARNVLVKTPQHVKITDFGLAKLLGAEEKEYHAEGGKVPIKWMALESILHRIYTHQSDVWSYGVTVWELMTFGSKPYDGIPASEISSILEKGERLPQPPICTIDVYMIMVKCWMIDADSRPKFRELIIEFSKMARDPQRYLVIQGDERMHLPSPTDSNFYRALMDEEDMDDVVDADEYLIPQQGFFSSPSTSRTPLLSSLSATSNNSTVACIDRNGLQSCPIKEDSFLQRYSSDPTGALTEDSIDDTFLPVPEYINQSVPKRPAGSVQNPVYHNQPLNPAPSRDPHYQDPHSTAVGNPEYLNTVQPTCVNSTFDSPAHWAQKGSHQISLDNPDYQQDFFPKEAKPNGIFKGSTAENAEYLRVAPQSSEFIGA
T3 sequence (P00533 25-1210 C797S/L858R): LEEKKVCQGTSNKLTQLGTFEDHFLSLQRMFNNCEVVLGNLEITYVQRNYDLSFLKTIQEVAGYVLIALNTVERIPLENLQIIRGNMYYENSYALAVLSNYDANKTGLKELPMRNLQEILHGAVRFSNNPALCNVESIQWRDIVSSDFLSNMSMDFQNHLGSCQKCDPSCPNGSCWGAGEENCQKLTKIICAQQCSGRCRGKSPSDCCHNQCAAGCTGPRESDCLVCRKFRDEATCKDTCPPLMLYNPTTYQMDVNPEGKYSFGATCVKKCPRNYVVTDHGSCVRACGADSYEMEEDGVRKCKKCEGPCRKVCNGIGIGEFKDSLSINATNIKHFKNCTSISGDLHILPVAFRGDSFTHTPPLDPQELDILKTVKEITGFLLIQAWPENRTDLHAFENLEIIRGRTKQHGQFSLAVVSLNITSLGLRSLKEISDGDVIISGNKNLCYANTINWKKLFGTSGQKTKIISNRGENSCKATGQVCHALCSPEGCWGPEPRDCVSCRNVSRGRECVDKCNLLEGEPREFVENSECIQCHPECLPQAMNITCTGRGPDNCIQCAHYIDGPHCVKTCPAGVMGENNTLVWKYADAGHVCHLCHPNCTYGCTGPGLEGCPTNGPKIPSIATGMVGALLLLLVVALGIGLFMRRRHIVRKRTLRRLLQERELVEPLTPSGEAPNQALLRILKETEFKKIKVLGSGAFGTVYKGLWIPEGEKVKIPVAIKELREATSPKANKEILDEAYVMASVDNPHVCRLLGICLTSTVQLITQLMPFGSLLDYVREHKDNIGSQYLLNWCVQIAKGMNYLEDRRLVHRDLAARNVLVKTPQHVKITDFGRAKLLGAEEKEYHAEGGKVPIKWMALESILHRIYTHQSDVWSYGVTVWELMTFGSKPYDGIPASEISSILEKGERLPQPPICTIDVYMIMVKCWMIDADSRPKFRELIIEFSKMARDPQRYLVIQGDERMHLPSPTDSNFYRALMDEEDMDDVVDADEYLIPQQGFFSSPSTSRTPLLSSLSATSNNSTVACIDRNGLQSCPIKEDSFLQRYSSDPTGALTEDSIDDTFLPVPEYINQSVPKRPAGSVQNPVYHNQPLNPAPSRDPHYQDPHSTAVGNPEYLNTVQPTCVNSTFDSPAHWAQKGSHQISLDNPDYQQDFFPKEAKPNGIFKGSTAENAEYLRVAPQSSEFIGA
T1 sequence (P00533 with tags, fused parts or gaps T790M/C797S/L858R): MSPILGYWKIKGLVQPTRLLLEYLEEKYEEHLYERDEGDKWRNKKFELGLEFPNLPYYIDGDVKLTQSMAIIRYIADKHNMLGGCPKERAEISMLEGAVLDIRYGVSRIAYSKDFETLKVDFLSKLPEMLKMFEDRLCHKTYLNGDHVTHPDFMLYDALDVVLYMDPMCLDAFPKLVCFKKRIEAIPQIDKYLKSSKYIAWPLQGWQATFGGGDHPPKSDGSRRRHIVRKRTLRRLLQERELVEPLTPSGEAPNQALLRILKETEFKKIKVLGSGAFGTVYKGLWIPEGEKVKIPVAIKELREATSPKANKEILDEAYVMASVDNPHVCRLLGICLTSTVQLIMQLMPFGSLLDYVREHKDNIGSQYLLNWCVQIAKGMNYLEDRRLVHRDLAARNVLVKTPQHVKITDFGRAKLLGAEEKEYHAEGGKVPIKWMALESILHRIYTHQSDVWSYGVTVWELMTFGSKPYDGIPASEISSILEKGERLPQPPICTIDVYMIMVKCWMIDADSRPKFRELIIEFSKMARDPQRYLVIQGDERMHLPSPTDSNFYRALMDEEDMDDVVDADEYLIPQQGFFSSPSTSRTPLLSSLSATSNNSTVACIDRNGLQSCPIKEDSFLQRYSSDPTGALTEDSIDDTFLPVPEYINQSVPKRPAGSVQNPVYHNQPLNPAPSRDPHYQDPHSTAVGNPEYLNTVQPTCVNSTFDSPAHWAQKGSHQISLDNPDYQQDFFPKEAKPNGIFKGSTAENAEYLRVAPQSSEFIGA

In the case of `C#Cc1c(-c2cnc3ccccc3c2)c2c(N)ncnc2n1C12CCC(NC(C)=O)(CC1)C2` [Example 39, N-(4-(4-Amino-6-ethynyl-5-(quinolin-3-yl)-7H-pyrrolo[2,3-d]pyrimidin-7-yl)-bicyclo-[2.2.1]heptan-1-yl)acetamide], the half-maximal inhibitory concentration (IC50) in assay [1] came out at 0.36 nM; in assay [2] it was 0.75 nM; on human EGFR (L858R/C797S) it was 1.4 nM; against human EGFR (WT) it was 1.5 nM.
With `C#Cc1c(-c2cnc3ccccc3c2)c2c(N)ncnc2n1C12CCC(NC(=O)c3ccco3)(CC1)C2` [Example 41], the IC50 is 0.39 nM in assay [1], 1.4 nM in assay [2], 1.9 nM on human EGFR (L858R/C797S) and 2.1 nM at human EGFR (WT).
`C#Cc1c(-c2cnc3ccccc3c2)c2c(N)ncnc2n1C12CCC(NC(=O)c3ccno3)(CC1)C2` [Example 44]: the IC50 in assay [1] was 0.32 nM; in assay [2], 0.73 nM; against human EGFR (L858R/C797S), 0.94 nM; against human EGFR (WT), 0.8 nM.
The corresponding values for `C#Cc1c(-c2cnc3ccccc3c2)c2c(N)ncnc2n1C12CCC(NC(=O)c3ncco3)(CC1)C2` [Example 46] are 0.41 nM, 0.43 nM, 0.43 nM and 0.79 nM.
For `C#Cc1c(-c2cnc3ccccc3c2)c2c(N)ncnc2n1C12CCC(NC(=O)c3cnccn3)(CC1)C2` [Example 48], the IC50 in assay [1] was less than 0.3 nM; in assay [2], 0.46 nM; against human EGFR (L858R/C797S), 0.6 nM; on human EGFR (WT), 0.75 nM.
Turning to `C#Cc1c(-c2cnc3ccccc3c2)c2c(N)ncnc2n1C12CCC(NC(=O)c3cccnn3)(CC1)C2` [Example 49], the concentration for half-maximal inhibition (IC50) in assay [1] was determined as 0.47 nM; in assay [2], 0.49 nM; on human EGFR (L858R/C797S) it was 0.63 nM; on human EGFR (WT), 0.86 nM.
The corresponding values for `C#Cc1c(-c2cnc3ccccc3c2)c2c(N)ncnc2n1C12CCC(NC(=O)c3nccs3)(CC1)C2` [Example 53] are 0.69 nM, 0.88 nM, 1.2 nM and 1.9 nM.

By IC50 is commonly meant the concentration that inhibits the measured activity by half.
